Experimental data from article PMC4965013, “Open Source Drug Discovery with the Malaria Box Compound Collection for Neglected Diseases and Beyond” (PLoS Pathogens, 2016).

How the values were obtained:
P. falciparum = experiment: EC50 listed in S2 Table Metabolomics (used to set the concentration tested); format: cell-based; settings: Plasmodium falciparum; EC50 used for Factor_XEC50 in metabolomics; read-out: EC50_nM
[1] = test system: P. falciparum 3D7 trophozoites; experiment: Metabolomic fingerprint profiling LC-MS; format: cell-based, Plasmodium falciparum; set-up: UDP-D-glucose / ADP-D-glucose: unit not given here
[2] = metabolite level change after treatment

COc1ccc(-c2cc3c(SCC(=O)Nc4cc(C(F)(F)F)ccc4Cl)nccn3n2)cc1 [MMV396679]
EC50 (P. falciparum): 89.9 nM
Acetyllysine ([1]; S2 Table Metabolomics, metabolite Acetyllysine): -0.1115
N-acetyl-L-ornithine ([1]; S2 Table Metabolomics, metabolite N-acetyl-L-ornithine): -0.02651
N-carbamoyl-L-aspartate ([1]; S2 Table Metabolomics, metabolite N-carbamoyl-L-aspartate): 3.992
NADPH ([1]; S2 Table Metabolomics, metabolite NADPH): 0.255
dAMP ([1]; S2 Table Metabolomics, metabolite dAMP): 0.01076
dCMP ([1]; S2 Table Metabolomics, metabolite dCMP): -0.01731
dTDP ([1]; S2 Table Metabolomics, metabolite dTDP): -0.9721
dTMP ([1]; S2 Table Metabolomics, metabolite dTMP): -0.9985
dTTP ([1]; S2 Table Metabolomics, metabolite dTTP): -1.02
dihydroorotate ([1]; S2 Table Metabolomics, metabolite dihydroorotate): 4.797
orotate ([1]; S2 Table Metabolomics, metabolite orotate): 0.864
DLH ([1]; S2 Table Metabolomics, peptide DLH): -0.2125
DLS/SDL/SID ([1]; S2 Table Metabolomics, peptide DLS/SDL/SID): -0.04913
PD ([1]; S2 Table Metabolomics, peptide PD): -0.04215
PEE ([1]; S2 Table Metabolomics, peptide PEE): -0.3501
PVNF ([1]; S2 Table Metabolomics, peptide PVNF): -0.2936
3-phosphoglycerate ([1]; metabolite 3-phosphoglycerate, S2 Table Metabolomics): -0.0577
ADP-D-glucose ([1]; metabolite ADP-D-glucose, S2 Table Metabolomics): -0.06603
ATP ([1]; metabolite ATP, S2 Table Metabolomics): 0.1822
CDP ([1]; metabolite CDP, S2 Table Metabolomics, change in metabolite level after compound treatment): -0.644
D-sedoheptulose-1/7-phosphate ([1]; metabolite D-sedoheptulose-1/7-phosphate, S2 Table Metabolomics, change in metabolite level after compound treatment): 0.2024
FAD ([1]; metabolite FAD, S2 Table Metabolomics): 0.03763
GMP ([1]; metabolite GMP, S2 Table Metabolomics, change in metabolite level after compound treatment): 0.3849
NAD+ ([1]; metabolite NAD+, S2 Table Metabolomics): -0.01439
NADP+ ([1]; metabolite NADP+, S2 Table Metabolomics): -0.06317
Octoluse Bisphosphate ([1]; metabolite Octoluse Bisphosphate, S2 Table Metabolomics, change in metabolite level after compound treatment): -0.02018
Pyroglutamic acid ([1]; metabolite Pyroglutamic acid, S2 Table Metabolomics): 0.2933
UDP-D-glucose ([1]; metabolite UDP-D-glucose, S2 Table Metabolomics): -0.1121
UDP-D-glucuronate ([1]; metabolite UDP-D-glucuronate, S2 Table Metabolomics): -0.02141
UDP-N-acetyl-glucosamine ([1]; metabolite UDP-N-acetyl-glucosamine, S2 Table Metabolomics): -0.3213
UDP ([1]; metabolite UDP, S2 Table Metabolomics, change in metabolite level after compound treatment): -1.37
UMP ([1]; metabolite UMP, S2 Table Metabolomics, change in metabolite level after compound treatment): -0.7971
UTP ([1]; metabolite UTP, S2 Table Metabolomics, change in metabolite level after compound treatment): -1.261
a-ketoglutarate ([1]; metabolite a-ketoglutarate, S2 Table Metabolomics): 0.1314
citrate/isocitrate ([1]; metabolite citrate/isocitrate, S2 Table Metabolomics, change in metabolite level after compound treatment): 0.05797
cytidine ([1]; metabolite cytidine, S2 Table Metabolomics): 0.1643
dATP ([1]; metabolite dATP, S2 Table Metabolomics): 0.3792
dGMP/AMP ([1]; metabolite dGMP/AMP, S2 Table Metabolomics, change in metabolite level after compound treatment): -0.06069
fumarate ([1]; metabolite fumarate, S2 Table Metabolomics, change in metabolite level after compound treatment): -0.2305
glucose-1/6-phosphate ([1]; metabolite glucose-1/6-phosphate, S2 Table Metabolomics, change in metabolite level after compound treatment): 0.5016
glycerate ([1]; metabolite glycerate, S2 Table Metabolomics, change in metabolite level after compound treatment): 0.4143
guanine ([1]; metabolite guanine, S2 Table Metabolomics, change in metabolite level after compound treatment): 0.4991
guanosine ([1]; metabolite guanosine, S2 Table Metabolomics, change in metabolite level after compound treatment): 0.9003
hypoxanthine ([1]; metabolite hypoxanthine, S2 Table Metabolomics): 0.3227
indole ([1]; metabolite indole, S2 Table Metabolomics): 0.2561
inosine ([1]; metabolite inosine, S2 Table Metabolomics, change in metabolite level after compound treatment): 0.1928
2_3-Diphosphoglyceric acid [1, 2]: 0.1312
4-phosphopantothenate [1, 2]: -0.2367
6-phospho-D-gluconate [1, 2]: 0.186
FMN [1, 2]: -0.2039
IMP [1, 2]: -0.06535
Pyrophosphate [1, 2]: 0.04157
Sedoheptoluse bisphosphate [1, 2]: -0.03524
cyclic-AMP [1, 2]: -0.06553
glutathione disulfide [1, 2]: 0.06998
lactate [1, 2]: 0.2306
myo-inositol [1, 2]: 0.2632
nicotinate ([1]; metabolite nicotinate, S2 Table Metabolomics): 0.2615
ornithine ([1]; metabolite ornithine, S2 Table Metabolomics): 0.183
phosphoenolpyruvate ([1]; metabolite phosphoenolpyruvate, S2 Table Metabolomics): -0.02867
pyruvate ([1]; metabolite pyruvate, S2 Table Metabolomics, change in metabolite level after compound treatment): -0.158
ribose-phosphate ([1]; metabolite ribose-phosphate, S2 Table Metabolomics): -0.4444
sarcosine/alanine ([1]; metabolite sarcosine/alanine, S2 Table Metabolomics, change in metabolite level after compound treatment): 0.1483
sn-glycerol-3-phosphate ([1]; metabolite sn-glycerol-3-phosphate, S2 Table Metabolomics): -0.1937
succinate/methylmalonic acid ([1]; metabolite succinate/methylmalonic acid, S2 Table Metabolomics, change in metabolite level after compound treatment): -0.8703
uridine ([1]; metabolite uridine, S2 Table Metabolomics, change in metabolite level after compound treatment): -0.4231
xanthosine ([1]; metabolite xanthosine, S2 Table Metabolomics, change in metabolite level after compound treatment): 0.3074
